{
  "source": "patent US6191271A",
  "about": "“Synthetic divalent sLex containing polylactosamines and methods for use” (Glycim Oy, priority 1998, dated 2001)",
  "key": {"human Fuc-TIV": {"system": "human Fuc-TIV", "experiment": "Fucosyltransferase reaction with lysates of CHO-cells transfected with human Fuc-TIV", "type": "biochemical", "details": "for share of Fuc-TIV fucose transfer at the terminal (sialylated or non-reducing end) LN unit: residue 3 / terminal LN unit", "description": "(§1) Transfected Cells and Cell Lysates--The transfection of CHO-cells stably expressing human Fuc-TIV or Fuc-TVII has been described previously (Lowe, J. B., et al., J. Biol. Chem. 266:17467-17477 (1991); Natsuka, S., et al., J. Biol. Chem. 269:16789-16794 (1994)). For the enzyme assays, the cells were lysed in 1% Triton X-100 on ice in the presence of a mixture of protease inhibitors (16 μg/ml benzamidine HCl, 10 μg/ml phenanthroline, 10 μg/ml aprotinin, 10 μg/ml leupeptin, 10 μg/ml pepstatin A, 1 mM PMSF, Pharmingen, San Diego, Calif.).\n(§2) Glycan 1 was from Sigma (St. Louis, Mo.), and glycan 2 from Oxford Glycosystems (Abingdon, UK). The others were synthesized enzymatically. Briefly, glycan 11 was constructed from GlcNAcβ1-3Galβ1-OMe (Sigma) by β1,4-galactosylation (Brew, K., et al., Proc. Natl. Acad Sci. USA 59:491-497 (1968)) followed by β1,3-N-acetylglycosaminylation (Seppo, A., et al., Biochem. Cell Biol. 68:44-53 (1990)) and a second round of β1-4-galactosylation. […] Glycan 3 was obtained from glycan 11 by α2,3-sialylation as in (Maaheimo, H., et al., Eur. J. Biochem. 234:616-625 (1995)). Glycan 12 was constructed from the GNβ1-3 'LNβ1-3 'LN (Leppanen, A., et al., Biochemistry 30:9287-9296(1991)) by β1,4-galactosylation, MALDI-TOF MS: (M+Na)^+ m/z 1137.1 (calc. 1137.0). Glycan 4 was obtained by glycan 12 by α2,3-sialylation. Glycan 15 was synthesized as in (Renkonen, O., et al., Biochem. Cell. Biol. 68:1032-1036 (1990)), MALDI-TOF MS: (M+Na)^+ m/z 1136.9 (calc. 1137.0). Glycan 16 was obtained by a 2,3-salylation of 15. In the synthesis of glycan 8, GNβ1-3'LNβ1-3'LN was α1,3 [^14 C]fucosylated at both LN units with α1,3/4-FucTs ofhuman milk and then β1,4-galactosylated. MALDI-TOF MS of the resulting octasaccharide LN β1-3'Lexβ1-3'Lex gave (M+Na)^+ m/z 1429.3 (calc. 1429.3). The octasaccharide was finally α2,3-sialylated to give glycan 8. Degradation of glycan 8 by sialidase and a mixture of β-galactosidaseand β-N-acetylhexosaminidase gave the neutral hexasaccharide [^14 C]Fucα1-3LNβ1-3'[^14 C]Fucα1-3LN, which chromatographed like an authentic marker on paper. In the synthesis of glycan 5, glycan 10 was converted to the pentasaccharide LNβ1-3 '(GNβ1-6 ')LN as in (Niemela, R., et al., Carbohydr. Res. 279:331-338 (1995); Maaheimo, H., et al., Carbohydr. Res. 297:53-59 (1997)), MALDI-TOF MS: (M+Na)^+ m/z 974.8 (calc. 974.9). The product was α2,3-sialylated, α1,3-fucosylated selectively at the distal, sialylated LN-unit (Niemela, R., et al., Carbohydr. Res. 279:331-338 (1995), and treated with β-N-acetylhexosaminidase for removal of the protecting β1-6GN-unit to give glycan 5. Glycan 6, in turn, was obtained by α1,3-fucosylating glycan 9 at the LN unit by human milk α1,3/4-Fuc-Ts. The product was then β1,4-galactosylated and finally α2,3-sialylated. Glycan 7 was synthesized by α2,3-sialylation of the heptasaccharide LNβ1-3'Lexβ1-3'LN,prepared by β1,4-galactosylation of GNβ1-3 'Lexβ1-3 'LN, which had been isolated from a mixture of monofucosylated isomers by wheat germ agglutinin (WGA)-agarose chromatography. LNβ1-3'Lexβ1-3'N was characterized by ^1 H-NMR-spectroscopy, MALDI-TOF MS: (M+Na)^+m/z 1282.5 (calc. 1282.5). Glycan 9 was obtained by β1,3-N-acetylglucosaminylation of LN (Seppo, A., et al., Biochem. Cell Biol. 68:44-53 (1990)), MALDI-TOF MS: (M+Na)^+ m/z 609.7 (calc. 609.5). Glycan 10 was synthesized by β1,4-galactosylation of glycan 9. Glycans 13 and 14 were obtained by separating monofucosylated derivatives of glycan 10 by WGA chromatography. Glycan 13, MALDI-TOF MS: (M+Na)^+ m/z 917.9 (calc. 917.8). Glycan 14, MALDI-TOF MS: (M+Na)^+ m/z 917.8 (calc. 917.8). […]"}, "human Fuc-TVII": {"system": "human Fuc-TVII", "experiment": "Fucosyltransferase reaction with lysates of CHO-cells transfected with human Fuc-TVII", "type": "biochemical", "description": "as §1\nas §2, with “chromatography.” for “chromatography. Glycan 13, MALDI-TOF MS: (M+Na)^+ m/z 917.9 (calc. 917.8). Glycan 14, MALDI-TOF MS: (M+Na)^+ m/z 917.8 (calc. 917.8).”"}, "[1]": {"system": "rat lymphocyte L-selectin", "experiment": "Stamper-Woodruff assay: in vitro lymphocyte adhesion to high endothelial venules (HEV) of peripheral rat lymph nodes", "type": "cell-based", "description": "The affinities of the glycans of the invention towards rat lymphocyte L-selectin were analyzed with the in vitro Stamper-Woodruff binding assay. […] The important control saccharides, carrying at the distal termini the fucose-free sLN-residues instead of the sLex-epitopes are consistently without any inhibitory effect.\nLymphocytes were isolated from mesenterical lymph nodes of WF or DA rats and used immediately in the assay after isolation and pretreatment. […] Lymphocytes were over 99% of purity as quantitated by cytocentrifuge preparations. […]\nIn the Stamper-Woodruff assay 3×10^6 lymphocytes in 100 μl of RPMI containing 0.5% FCS were put on a frozen section inside a 23 mm wax circle, and rotated for 30 min at +4° C. […] The number of bound lymphocytes was calculated per high endothelial venules and 50 to 100 vessels were identified from each sample. […]\nLymphocyte adhesion was studied in a well documented L-selectin-dependent Stamper-Woodruff assay where frozen sections of lymph nodes were prepared, lymphocytes were placed on top of them, adhesion was permitted on a rotator and the number of adherent cells were quantitated visually. […]"}},
  "note": "“Also recorded” adds a separate entry of the source.",
  "data": [
    {"compound": "CC(=O)N[C@H]1C(O)O[C@H](CO)[C@@H](O[C@@H]2O[C@H](CO)[C@H](O)[C@H](O)[C@H]2O)[C@@H]1O", "note": "(stereo partly shown) [glycan 1 (FIG. 8), N-acetyllactosamine, reference compound]", "values": [
      {"measurement": "fucosylation by Fuc-TIV, acceptor- and site-specificity (in words)", "setting": "human Fuc-TIV", "value": "rapidly fucosylates"},
      {"measurement": "Transfer rate (reference acceptor)", "setting": "human Fuc-TIV; reference acceptor for Fuc-TIV", "value": "~3.9", "unit": "pmol/μg protein/h"}
    ]},
    {"compound": "SAα2-3'LNβ1-3Lex β1-3'[^14 C]Lex [glycan 8 (FIG. 8)]", "values": [
      {"measurement": "fucosylation by Fuc-TIV, acceptor- and site-specificity (in words)", "setting": "human Fuc-TIV", "value": "ineffective"},
      {"measurement": "rate of Fuc-TIV reaction as % of the rate catalyzed by Fuc-TVII", "setting": "human Fuc-TIV; transfer to distal sialylated LN unit giving SAα2-3'Lexβ1-3'Lexβ1-3'Lex", "value": "6-7%"},
      {"measurement": "fucosylation by Fuc-TVII, acceptor- and site-specificity (in words)", "setting": "human Fuc-TVII", "value": "nearly as rapidly as glycan 2"}
    ]},
    {"compound": "SAα2,3'LNβ1,3'LNβ1,3' (SAα2,3'LNβ1,3'LNβ1,6')LN [glycan 5]", "values": [
      {"measurement": "effect on lymphocyte adhesion to HEV (in words)", "setting": "[1]; 50 nM", "value": "no effect in lymphocyte binding to HEV"},
      {"measurement": "effect on lymphocyte adhesion/binding to HEV (in words)", "setting": "[1]; peripheral rat lymph node HEV", "value": "did not show inhibitory effects"}
    ]},
    {"compound": "SAα2-3'LNβ1-3'Lexβ1-3'LN [glycan 7 (FIG. 8)]", "values": [
      {"measurement": "fucosylation by Fuc-TIV, acceptor- and site-specificity (in words)", "setting": "human Fuc-TIV", "value": "effectively utilizes"},
      {"measurement": "share of Fuc-TIV fucose transfer at the innermost / reducing end LN unit (residue 1)", "setting": "human Fuc-TIV", "value": 86, "unit": "%"},
      {"measurement": "share of Fuc-TIV fucose transfer at the terminal (sialylated or non-reducing end) LN unit", "setting": "human Fuc-TIV", "value": "Less than 5%"}
    ]},
    {"compound": "CC(=O)N[C@H]1[C@H]([C@H](O)[C@H](O)CO)O[C@@](O[C@H]2[C@@H](O)[C@@H](CO)O[C@@H](O[C@H]3[C@H](O)[C@@H](NC(C)=O)C(O)O[C@@H]3CO)[C@@H]2O)(C(=O)O)C[C@@H]1O", "note": "(stereo partly shown) [glycan 2 (FIG. 8), SAα2-3 'LN, reference compound]", "values": [
      {"measurement": "fucosylation by Fuc-TIV, acceptor- and site-specificity (in words)", "setting": "human Fuc-TIV", "value": "ineffective"},
      {"measurement": "Transfer rate (reference acceptor)", "setting": "human Fuc-TVII; reference acceptor for Fuc-TVII", "value": "~3.2", "unit": "pmol/μg protein/h"}
    ]},
    {"compound": "LN1-3'LN1-3'LN [glycan 12 (FIG. 8)]", "values": [
      {"measurement": "share of Fuc-TIV fucose transfer at the innermost / reducing end LN unit (residue 1)", "setting": "human Fuc-TIV", "value": 28, "unit": "%"},
      {"measurement": "share of Fuc-TIV fucose transfer at the middle LN unit (residue 2)", "setting": "human Fuc-TIV", "value": 47, "unit": "%"},
      {"measurement": "share of Fuc-TIV fucose transfer at the terminal (sialylated or non-reducing end) LN unit", "setting": "human Fuc-TIV", "value": 25, "unit": "%"}
    ]},
    {"compound": "Lexβ1-3 'LN [glycan 13 (FIG. 8)]", "values": [
      {"measurement": "fucosylation by Fuc-TIV, acceptor- and site-specificity (in words)", "setting": "human Fuc-TIV", "value": "transferred rapidly"}
    ]},
    {"compound": "SAα2-3'LNβ1-3'LNβ1-3'LN [glycan 4 (FIG. 8)]", "values": [
      {"measurement": "fucosylation by Fuc-TIV, acceptor- and site-specificity (in words)", "setting": "human Fuc-TIV", "value": "efficiently fucosylates; also recorded: transfers rapidly to sialoglycan 4, at both \"inner\" LN units; also recorded: efficient conversion of glycan 4 to glycan 8 in two steps catalyzed by Fuc-TIV, but not by Fuc-TVII"},
      {"measurement": "rate of Fuc-TIV transfer to the sialylated LN unit (residue 3), times slower than to both inner LN units", "setting": "human Fuc-TIV; residue 3 vs residues 1 and 2", "value": "30-40 times slower"},
      {"measurement": "fucosylation by Fuc-TVII, acceptor- and site-specificity (in words)", "setting": "human Fuc-TVII", "value": "transfers preferentially to the sialylated, distal LN residue"},
      {"measurement": "rate of Fuc-TVII transfer to the reducing end LN unit (residue 1), times slower than to the sialylated LN residue", "setting": "human Fuc-TVII; residue 1 vs residue 3", "value": 84, "unit": "times slower"},
      {"measurement": "rate of Fuc-TVII transfer to the middle LN unit (residue 2), times slower than to the sialylated LN residue", "setting": "human Fuc-TVII; residue 2 vs residue 3", "value": 17, "unit": "times slower"}
    ]},
    {"compound": "LNβ1-3 'LNβ1-3'Galβ1-OMe [glycan 11 (FIG. 8)]", "values": [
      {"measurement": "fucosylation by Fuc-TIV, acceptor- and site-specificity (in words)", "setting": "human Fuc-TIV", "value": "transferred efficiently"},
      {"measurement": "share of Fuc-TIV fucose transfer at the middle LN unit (residue 2)", "setting": "human Fuc-TIV", "value": 67, "unit": "%"},
      {"measurement": "share of Fuc-TIV fucose transfer at the terminal (sialylated or non-reducing end) LN unit", "setting": "human Fuc-TIV", "value": 33, "unit": "%"}
    ]},
    {"compound": "LNβ1-3'Lex [glycan 14 (FIG. 8)]", "values": [
      {"measurement": "fucosylation by Fuc-TIV, acceptor- and site-specificity (in words)", "setting": "human Fuc-TIV", "value": "transferred rapidly"}
    ]}
  ]
}
